# Source: patent US12551536B2, “Semaglutide in medical therapy” (Novo Nordisk A/S, priority 2017, dated 2026)
# Key:
# [1] = 26-week clinical trial in adult patients with T2D: gastrointestinal adverse events incl. nausea; format: in vivo, human; conditions: on-treatment
# Experimental: A 26-week, randomized, double-blind clinical trial was carried out with adult patients with T2D, HbA1c 7.0-10.0% (53-86 mmol/mol), and body mass index 24.0-40.0 kg/m^2 who were treated with diet and exercise±metformin. […] The primary endpoint was change in HbA1c from baseline to week 26. Key exclusion criteria were a history of chronic or idiopathic acute pancreatitis and moderate-to-severe renal impairment (estimated glomerular filtration rate <60 mL/min/1.73 m^2).
# Trial drug administration: Following a 2-week screening period, patients received trial medication for 26 weeks, followed by a 7-week follow-up period. […] The trial was double blinded within (but not between) each dose level of semaglutide, liraglutide and placebo, as treatment was volume matched.
# [2] = 52-week clinical trial in obese subjects without diabetes mellitus: gastrointestinal adverse events; format: in vivo, human; conditions: Lira 3.0 mg once daily s.c., on-treatment
# Experimental: This trial was designed as a 52-week, randomised, double-blind, placebo-controlled, sixteen-armed, parallel group, multi-centre, multinational trial comparing once-daily subcutaneous administration of semaglutide in five different doses (ranging from 0.05 mg/day to 0.4 mg/day) with placebo in obese subjects without diabetes mellitus. […] The trial was double-blinded between active and placebo treatment. To ensure a sufficiently large sample of men, no more than 70% of the trial population was allowed to be women and the randomisation was stratified according to sex. Subjects were randomised in a balanced manner (6:1 active:placebo).
# The primary endpoint was relative change from baseline in body weight (%) at 52 weeks. Key secondary endpoints included proportion of subjects with weight loss of ≥5% or ≥10% of baseline body weight at 52 weeks as well as change in body weight from baseline to 52 weeks. Supportive secondary safety endpoints also included gastrointestinal (GI) adverse events (i.e. nausea, vomiting, diarrhoea and constipation). During each site visit the individual subject was asked via open questions if they had experienced any medical problems since the last visit. All medical problems either observed by the site staff or the subject was reported as an adverse event and evaluated for severity and causality by the investigator. For this trial the subjects had site visits every 2 weeks for the first 20 weeks of the trial and afterwards site visits was performed every 4 weeks.
# Subjects in all treatment arms including placebo received nutritional counselling and a calorie-reduced diet by a dietician or equivalent qualified delegate as well as physical activity counselling by a qualified person on a monthly basis beginning at the randomisation visit. The trial population consisted of a total of 957 subjects were randomised. A total of 777 subjects (81.2%) completed 52 weeks of treatment; 180 (18.8%) discontinued treatment prematurely with no obvious dose-dependent trend. Key inclusion criteria for this trial were: Male or female, age ≥18 years at the time of signing inform consent; body mass index (BMI)≥30.0 kg/m2 at the screening visit; and at least one unsuccessful weight loss attempt per investigator judgement. Key exclusion criteria for this trial were: A HbA1c≥6.5% at screening or diagnosed with type 1 or type 2 diabetes mellitus; Treatment with glucose lowering agent(s) within 90 days before screening; Screening calcitonin ≥50 ng/L (pg/mL); Personal or family history of medullary thyroid carcinoma or multiple endocrine neoplasia syndrome type 2; History of pancreatitis (acute or chronic); Obesity induced by endocrine disorders (e.g. Cushing Syndrome); Treatment with any medication within 90 days before screening that based on investigator's judgement may cause significant weight change; Previous surgical treatment for obesity (liposuction and/or abdominoplasty performed >1 year before screening is allowed); History of major depressive disorder within 2 years before randomisation; Any lifetime history of a suicidal attempt; and Female who is pregnant, breast-feeding or intends to become pregnant or is of childbearing potential and not using an adequate contraceptive method (adequate contraceptive measures as required by local regulation or practice).
# [3] = Lira 0.3 mg once daily s.c., N 64
# [4] = Lira 0.6 mg once daily s.c., N 64
# [5] = Lira 1.2 mg once daily s.c., N 64
# [6] = Lira 1.8 mg once daily s.c., N 65
compound,measurement,setting,value
"CCCCCCCCCCCCCCCC(=O)N[C@@H](CCC(=O)NCCCC[C@H](NC(=O)[C@H](C)NC(=O)[C@H](C)NC(=O)[C@H](CCC(N)=O)NC(=O)CNC(=O)[C@H](CCC(=O)O)NC(=O)[C@H](CC(C)C)NC(=O)[C@H](Cc1ccc(O)cc1)NC(=O)[C@H](CO)NC(=O)[C@H](CO)NC(=O)[C@@H](NC(=O)[C@H](CC(=O)O)NC(=O)[C@H](CO)NC(=O)[C@@H](NC(=O)[C@H](Cc1ccccc1)NC(=O)[C@@H](NC(=O)CNC(=O)[C@H](CCC(=O)O)NC(=O)[C@H](C)NC(=O)[C@@H](N)Cc1cnc[nH]1)[C@@H](C)O)[C@@H](C)O)C(C)C)C(=O)N[C@@H](CCC(=O)O)C(=O)N[C@@H](Cc1ccccc1)C(=O)N[C@H](C(=O)N[C@@H](C)C(=O)N[C@@H](Cc1c[nH]c2ccccc12)C(=O)N[C@@H](CC(C)C)C(=O)N[C@H](C(=O)N[C@@H](CCCNC(=N)N)C(=O)NCC(=O)N[C@@H](CCCNC(=N)N)C(=O)NCC(=O)O)C(C)C)[C@@H](C)CC)C(=O)O [Lira, liraglutide, reference compound]","Gastrointestinal adverse events, % (percentage of patients experiencing at least one event)",[1]; Lira 0.3 mg once daily s.c.,21.9%
same,"Gastrointestinal adverse events, E (number of events)",[1]; Lira 0.3 mg once daily s.c.,25
same,"Nausea, % (percentage of patients experiencing at least one event)",[1]; Lira 0.3 mg once daily s.c.,9.4%
same,"Nausea, E (number of events)",[1]; Lira 0.3 mg once daily s.c.,7
same,"Gastrointestinal adverse events, Ne (number of patients experiencing at least one event)",[1]; [3],14
same,"Nausea, Ne (number of patients experiencing at least one event)",[1]; [3],6
same,"Gastrointestinal adverse events, % (percentage of patients experiencing at least one event)",[1]; Lira 0.6 mg once daily s.c.,29.7%
same,"Gastrointestinal adverse events, E (number of events)",[1]; Lira 0.6 mg once daily s.c.,62
same,"Nausea, % (percentage of patients experiencing at least one event)",[1]; Lira 0.6 mg once daily s.c.,10.9%
same,"Nausea, E (number of events)",[1]; Lira 0.6 mg once daily s.c.,11
same,"Gastrointestinal adverse events, Ne (number of patients experiencing at least one event)",[1]; [4],19
same,"Nausea, Ne (number of patients experiencing at least one event)",[1]; [4],7
same,"Gastrointestinal adverse events, % (percentage of patients experiencing at least one event)",[1]; Lira 1.2 mg once daily s.c.,31.3%
same,"Gastrointestinal adverse events, E (number of events)",[1]; Lira 1.2 mg once daily s.c.,40
same,"Nausea, % (percentage of patients experiencing at least one event)",[1]; Lira 1.2 mg once daily s.c.,10.9%
same,"Nausea, E (number of events)",[1]; Lira 1.2 mg once daily s.c.,11
same,"Gastrointestinal adverse events, Ne (number of patients experiencing at least one event)",[1]; [5],20
same,"Nausea, Ne (number of patients experiencing at least one event)",[1]; [5],7
same,"Gastrointestinal adverse events, % (percentage of patients experiencing at least one event)",[1]; Lira 1.8 mg once daily s.c.,41.5%
same,"Gastrointestinal adverse events, E (number of events)",[1]; Lira 1.8 mg once daily s.c.,81
same,"Nausea, % (percentage of patients experiencing at least one event)",[1]; Lira 1.8 mg once daily s.c.,20.0%
same,"Nausea, E (number of events)",[1]; Lira 1.8 mg once daily s.c.,18
same,"Gastrointestinal adverse events, Ne (number of patients experiencing at least one event)",[1]; [6],27
same,"Nausea, Ne (number of patients experiencing at least one event)",[1]; [6],13
same,"Gastrointestinal adverse events, Observed data, % (percentage of subjects with at least one event)",[2],74.8%
same,"Nausea, % (percentage of subjects experiencing at least one event)",[2]; observed data,44.7%
same,"Nausea, E (number of events)",[2]; observed data,89
same,"Nausea, Ne (number of subjects experiencing at least one event)","[2]; observed data, N 103",46
same,"Gastrointestinal adverse events, Observed data, Ne (number of subjects experiencing at least one event)",[2]; N 103,77
